In data set [1] the test system is S. mansoni juvenile worms. Description: In vitro assay, S. mansoni juvenile worms. It counts as cell-based. The settings on record: Schistosoma mansoni; S. mansoni juvenile worms, in vitro; read-out: (b) Juvenile. Here is the method:
(§1) The routine biological assays using adult or juvenile worms and cytotoxicity assays using MRC-5 cells have been disclosed previously in Mansour, N. R., et al. (2016). “High Throughput Screening Identifies Novel Lead Compounds with Activity against Larval, Juvenile and Schistosoma mansoni PLoS Negl Trap Dis 10(4): e0004659. Cytotoxicity assays using the HepG2 cell line were carried out as described in Molecular Diversity (2015) 19, 251-261.
(b) S. mansoni juvenile worms

For data set [2], the system named is S. mansoni juvenile worms. Description: Mouse infection model, juvenile worms, oral treatment day 25 post infection, worm recovery. The data set is classed as in vivo, Schistosoma mansoni. As to conditions: mice. The protocol: Methods for the subcutaneous infection of mice and subsequent worm recovery were as described in Mansour et al (2016) except that infection was with 150 cercariae and the perfusion medium was citrate saline (0.9% sodium chloride, 1.5% tri-sodium citrate). Perfusion was carried out 8 days (adult infections) or 15 days (juvenile infections) after treatment. Perfuseate was collected into 30 mL universal tubes. RBC (Red Blood Cells) were removed by allowing the perfuseate to settle for 10 min, removal of most of the supernatant and washing once as above with 10 mL perfusion medium. A drop of dilute aqueous saponin solution was added to lyse any remaining RBC and the worm suspension poured into a grid-marked small petri dish. The tube was rinsed out into the petri dish and examined for any remaining worms. Worms were counted using a dissecting microscope. The mouse livers removed after perfusion were squashed between two thick glass plates and examined visually and any remaining worms added to those counted as above.
For testing efficacy against the juvenile worms, treatment was on day 25 post infection and for testing against the adult worms on day 42 post infection. Drugs were suspended in 7% Tween-80/3% Ethanol/double distilled water and drug dispersal was facilitated by vortexing and using a sonicating water bath (Formulation F1). Alternatively, drugs were suspended in 10% DMSO, 90% double distilled water containing 50 mM Na2HPO4 with 0.5% Tween-80 by first dissolving or suspending the drug in DMSO then adding the DMSO solution/suspension to the aqueous solution (Formulation F2). In a further set of conditions, drugs were first dissolved in DMSO, then diluted with corn oil to give a 5% DMSO+drug solution/suspension (Formulation F3)
The drug solution/suspensions were given by oral gavage at the rate of 10 ml/kg. Positive controls (artemether for juvenile worms and praziquantel for adult worms) were used in each experiment.

The test system of another data set is HepG2 cell line. Briefly: Cytotoxicity against human HepG2 cell lines. It counts as cell-based.
The next data set concerns S. mansoni adult worms. Description: In vitro assay, S. mansoni adult worms. It counts as cell-based. The settings on record: Schistosoma mansoni; S. mansoni adult worms, in vitro; read-out: (a) Adult. Here is the method:
as §1
(a) S. mansoni adult worms

The mark [3] stands for this setting: oral 25 mg/kg, Formulation F1, negative control 33.2 ± 9.09.
The mark [4] stands for this setting: oral 400 mg/kg, Formulation F1, negative control 33.0 ± 7.2.
The mark [5] stands for this setting: oral 400 mg/kg, Formulation F1, negative control 33.2 ± 9.09.
[6] abbreviates: oral 50 mg/kg, Formulation F1, negative control 33.0 ± 7.2.
The mark [7] stands for this setting: oral 50 mg/kg, Formulation F3, negative control 32.8 ± 14.

Molecules are shown by their SMILES.

On to `CCc1nc2cnc(-c3ccc(F)c(C(F)(F)C(F)(F)F)c3)cn2c1-c1c(F)cc(O)cc1F` [Example 45, 4-{2-ethyl-6-[4-fluoro-3-(1,1,2,2,2-pentafluoroethyl)phenyl]imidazo[1,2-a]pyrazin-3-yl}-3,5-difluorophenol], for which the IC50 in data set [1] was 0.021 µM. Moreover, in data set [2] (setting [3]), the Mean worm recovery is given as 31.8 ± 5.76 and the Percent worm reduction came out at 4%.

In data set [2] (setting [4]), `CO[C@H]1O[C@@H]2O[C@@]3(C)CC[C@H]4[C@H](C)CC[C@@H]([C@H]1C)[C@@]24OO3` [Artemether, artemether, reference compound] returned a Mean worm recovery of 8.2 ± 4.1 and a Percent worm reduction of 75%. In data set [2] (setting [5]), the Mean worm recovery worked out at 8.6 ± 4.16 and the Percent worm reduction is listed as 74%.

`Oc1cc(F)c(-c2c(C3CC3)nc3cnc(-c4ccc(F)c(C(F)(F)F)c4)cn23)c(F)c1` [Example 34, 4-(2-cyclopropyl-6-(4-fluoro-3-(trifluoromethyl)phenyl)imidazo[1,2-a]pyrazin-3-yl)-3,5-difluorophenol]: in data set [1], the IC50 amounted to 0.088 µM. Besides, in data set [2] (setting [6]), the Mean worm recovery came out at 24.8 ± 7.4 and the Percent worm reduction stood at 25%. The “(e) Cytotox HepG2” value with HepG2 cell line was 8.9 µM. Moreover, the IC50 in the data set on S. mansoni adult worms came to 0.069 µM.

Turning to `CC(C)c1cc(-c2cn3c(-c4ccc5[nH]ncc5c4F)c(C(F)(F)F)nc3cn2)ccc1F` [Example 67, 3-(4-Fluoro-1H-indazol-5-yl)-6-(4-fluoro-3-isopropyl-phenyl)-2-trifluoromethyl-imidazo[1,2-a]pyrazine], the IC50 (in data set [1]; in the data set on S. mansoni adult worms) was 0.002 µM each time. Besides, the Mean worm recovery in data set [2] (setting [7]) is 0. Also, in data set [2] (setting [7]), the Percent worm reduction was found to be 100%. Further, the “(e) Cytotox HepG2” value with HepG2 cell line was 17.0 µM.

`Fc1ccc(-c2cn3c(-c4ccc5[nH]ncc5c4F)c(C4CC4)nc3cn2)cc1C(F)(F)F` [Example 32]: in data set [2] (setting [6]), the Mean worm recovery turned out to be 29.0 ± 7.9 and the Percent worm reduction turned out to be 12%. Moreover, in the data set with HepG2 cell line, the “(e) Cytotox HepG2” value was 16.1 µM. Also, the IC50 in the data set on S. mansoni adult worms amounted to 0.063 µM.

For `CC(C)c1nc2cnc(-c3cccc(C(F)(F)F)c3)cn2c1-c1ccc2[nH]ncc2c1F` [Example 21, 4-fluoro-5-{2-propan-2-yl-6-[3-trifluoromethylphenyl]imidazo[1,2-a]pyrazin-3-yl}-1H-indazole], the IC50 in data set [1] was determined as 0.051 µM; in the data set with S. mansoni adult worms, 0.037 µM. Also, the “(e) Cytotox HepG2” value with HepG2 cell line was 15.1 µM.

As for `Cc1nc2cnc(-c3ccc(F)c(C(F)(F)C(F)(F)F)c3)cn2c1-c1c(F)cc(O)cc1F` [Example 53, 3,5-Difluoro-4-[6-(4-fluoro-3-pentafluoroethyl-phenyl)-2-methyl-imidazo[1,2-a]pyrazin-3-yl]-phenol], the figures for the IC50 (in data set [1]; in the data set with S. mansoni adult worms) were 0.02 µM and 0.019 µM, respectively. Further, the “(e) Cytotox HepG2” value in the data set on HepG2 cell line was found to be 8.8 µM.

On to `Oc1cc(F)c(-c2c(C3CCC3)nc3cnc(-c4ccc(F)c(C(F)(F)F)c4)cn23)c(F)c1` [Example 35, 4-(2-cyclobutyl-6-(4-fluoro-3-(trifluoromethyl)phenyl)imidazo[1,2-a]pyrazin-3-yl)-3,5-difluorophenol], for which the IC50 came to 0.073 µM in data set [1] and 0.059 µM in the data set on S. mansoni adult worms. Besides, in the data set on HepG2 cell line, the “(e) Cytotox HepG2” value was found to be 5.7 µM.

Regarding `CC(C)c1cc(-c2cn3c(-c4ccc5[nH]ncc5c4F)c(C(F)(F)F)nc3cn2)ccn1` [Example 87, 3-(4-Fluoro-1H-indazol-5-yl)-6-(2-isopropyl-pyridin-4-yl)-2-trifluoromethyl-imidazo[1,2-a]pyrazine], the IC50 in data set [1] is 0.091 µM; in the data set on S. mansoni adult worms it was 0.037 µM. Further, the “(e) Cytotox HepG2” value in the data set with HepG2 cell line is 9.5 µM.

For the compound `CCc1nn2cnc(-c3ccc(F)c(C(F)(F)F)c3)cc2c1-c1c(F)cc(O)cc1F` [Example 48, 4-(2-ethyl-5-(4-fluoro-3-(trifluoromethyl)phenyl)pyrazolo[1,5-c]pyrimidin-3-yl)-3,5-difluorophenol], the IC50 turned out to be 0.032 µM in data set [1] and 0.011 µM with S. mansoni adult worms. In addition, the “(e) Cytotox HepG2” value in the data set with HepG2 cell line stood at 9.8 µM.

Regarding `Oc1cc(F)c(-c2c(C3CC3)nc3cnc(-c4ccc(F)c(S(F)(F)(F)(F)F)c4)cn23)c(F)c1` [Example 56, 4-[2-Cyclopropyl-6-(4-fluoro-3-pentafluorosulfanyl-phenyl)-imidazo[1,2-a]pyrazin-3-yl]-3,5-difluoro-phenol], the figures for the IC50 (in data set [1]; in the data set with S. mansoni adult worms) were 0.02 µM and 0.019 µM, respectively. Besides, in the data set on HepG2 cell line, the “(e) Cytotox HepG2” value worked out at 10.1 µM.

For `CC(C)Oc1cccc(-c2cn3c(-c4ccc5[nH]ncc5c4F)c(C(F)(F)F)nc3cn2)c1` [Example 86, 3-(4-Fluoro-1H-indazol-5-yl)-6-(3-isopropoxy-phenyl)-2-trifluoromethyl-imidazo[1,2-a]pyrazine], the IC50 in data set [1] was determined as 0.026 µM; with S. mansoni adult worms, 0.017 µM. Also, the “(e) Cytotox HepG2” value with HepG2 cell line was 13.2 µM.

Regarding `Fc1ccc(-c2cn3c(-c4ccc5[nH]ncc5c4F)c(C(F)(F)F)nc3cn2)cc1S(F)(F)(F)(F)F` [Example 65, 3-(4-Fluoro-1H-indazol-5-yl)-6-(4-fluoro-3-pentafluorosulfanyl-phenyl)-2-trifluoromethyl-imidazo[1,2-a]pyrazine], the figures for the IC50 (in data set [1]; in the data set on S. mansoni adult worms) were 0.011 µM and 0.044 µM, respectively. Further, the “(e) Cytotox HepG2” value in the data set on HepG2 cell line came to 11.1 µM.

`CC(C)c1cccc(-c2cn3c(-c4ccc5[nH]ncc5c4F)c(C(F)(F)F)nc3cn2)c1` [Example 66, 3-(4-Fluoro-1H-indazol-5-yl)-6-(3-isopropyl-phenyl)-2-trifluoromethyl-imidazo[1,2-a]pyrazine]: the IC50 (in data set [1]; with S. mansoni adult worms) was 0.0052 µM each time. The “(e) Cytotox HepG2” value with HepG2 cell line came to 12.9 µM.

Turning to `CCc1nc2cnc(-c3ccc(F)c(C(F)(F)F)c3)cn2c1-c1c(F)cc(O)cc1F` [Example 36, 3,5-difluoro-4-[2-ethyl-6-[4-fluoro-3-(trifluoromethyl)phenyl]imidazo[1,2-a]pyrazin-3-yl]phenol], the values for the IC50 (in data set [1]; with S. mansoni adult worms) were 0.051 µM and 0.053 µM, respectively. Also, the “(e) Cytotox HepG2” value in the data set with HepG2 cell line turned out to be 8.3 µM.

As for `CC(C)c1nc2cnc(-c3cccc(S(F)(F)(F)(F)F)c3)cn2c1-c1c(F)cc(O)cc1F` [Example 39, 3,5-difluoro-4-[2-(propan-2-yl)-6-[3-(pentafluorosulfanyl)phenyl]imidazo[1,2-a]pyrazin-3-yl]phenol], the IC50 is less than 0.012 µM in data set [1] and 0.024 µM with S. mansoni adult worms. Further, the “(e) Cytotox HepG2” value in the data set with HepG2 cell line turned out to be 6.6 µM.

As to `Fc1ccc(-c2cn3c(-c4ccc5[nH]ncc5c4F)c(C(F)(F)F)nc3cn2)cc1C1CCC1` [Example 82, 6-(3-Cyclobutyl-4-fluoro-phenyl)-3-(4-fluoro-1H-indazol-5-yl)-2-trifluoromethyl-imidazo[1,2-a]pyrazine], the results for the IC50 (in data set [1]; with S. mansoni adult worms) were 0.059 µM and 0.045 µM, respectively. The “(e) Cytotox HepG2” value in the data set with HepG2 cell line is 6.1 µM.

For `CC(C)c1nc2cnc(-c3ccc(F)c(C(F)(F)F)c3)nc2n1-c1c(F)cc(O)cc1F` [Example 89, 3,5-Difluoro-4-[2-(4-fluoro-3-trifluoromethyl-phenyl)-8-isopropyl-purin-9-yl]-phenol], the IC50 in data set [1] stood at 0.128 µM; with S. mansoni adult worms, 0.071 µM. Besides, the “(e) Cytotox HepG2” value in the data set on HepG2 cell line stood at 4.8 µM.

As for `Fc1c(-c2c(C(F)(F)F)nc3cnc(-c4cccc(OC(F)(F)F)c4)cn23)ccc2[nH]ncc12` [Example 72, 3-(4-Fluoro-1H-indazol-5-yl)-6-(3-trifluoromethoxy-phenyl)-2-trifluoromethyl-imidazo[1,2-a]pyrazine], the IC50 was determined as 0.023 µM in data set [1] and 0.021 µM with S. mansoni adult worms. Besides, in the data set with HepG2 cell line, the “(e) Cytotox HepG2” value is 9.7 µM.

Consider `CC(C)c1nn2cnc(-c3cccc(C(F)(F)F)c3)cc2c1-c1c(F)cc(O)cc1F` [Example 24, 3,5-difluoro-4-(2-isopropyl-5-(3-(trifluoromethyl)phenyl)pyrazolo[1,5-c]pyrimidin-3-yl)phenol], for which the values for the IC50 (in data set [1]; with S. mansoni adult worms) were less than 0.012 µM and 0.022 µM, respectively. Also, the “(e) Cytotox HepG2” value in the data set on HepG2 cell line turned out to be 8.4 µM.

These data come from patent US11046700B2, “Substituted imidazo[1,2-a]pyrazines, pyrazolo[1,5-c]pyrimidines, pyrazolo[1,5-a]pyridines, and purines for the treatment of schistosomiasis” (Merck Patent GmbH, priority 2017, dated 2021).
